Test results as given in patent US20090280549A1, “Method for Treating Body Fluid” (priority 2005, published 2009).

Tests used:
[1] = system: lymphocytes; assay: ATX-S10•Na(II) uptake into lymphocytes; format: cell-based, human
Description: (§1) After labeling the compound represented by formula (II) above (hereinafter referred to as “ATX-S10•Na(II)”) with ^14C, the ATX-S10•Na(II) was dissolved in saline at a concentration of approximately 1×10^−3 mol/L, and the solution was filtered and sterilized with a 0.22 μm filter and then diluted with 1% FBS (fetal bovine serum)-containing RPMI1640 medium to prepare a 5×10^−5 mol/L ATX-S10•Na(II)-added solution.
(§2) Erythrocytes, platelets, neutrophils and lymphocytes were prepared from blood sampled from three healthy persons (designated as A, B and C).
(§3) The erythrocytes, neutrophils and lymphocytes were prepared from heparinized blood. […]
(§4) After adding 400 μL of the cell suspension and 100 μL of the ATX-S10•Na(II)-added solution to each well of a 48-well microplate and mixing, the mixtures were incubated with a CO2 incubator (37° C., 5% CO2) or allowed to stand in a refrigerating chamber (approximately 4° C.). The cells were separated immediately after addition (0 hours after addition) and 1 hour, 3 hours, 20 hours and 44 hours after addition, and ATX-S10•Na(II) uptake into the cells (including cell surface binding) was measured. […]
(§5) The cell separation and uptake measurement were performed in the following manner. […] Then 4.5 mL of liquid scintillator was added and mixed therewith, and the radioactivity was measured for 5 minutes using a liquid scintillation counter. […]

[2] = system: erythrocytes; assay: ATX-S10•Na(II) uptake into erythrocytes; format: cell-based, human
Description: as §1, §2, §3, §4, §5

[3] = system: KG-1 cells (human acute myeloid leukemia cells); assay: ATX-S10•Na(II) uptake into KG-1 cells; format: cell-based; details: for ATX-S10•Na(II) uptake: KG-1
Description: as §1
As malignant lymphoma cells and leukemia cells, there were used THP-1 cells (human monocytic leukemia cells), EoL-1 cells (human eosinophilic leukemia cells), A3/KAW cells (human malignant lymphoma cells) and KG-1 cells (human acute myeloid leukemia cells). All of the cells were cultured using 10% FBS-containing RPMI1640 medium, with subculturing 1 to 2 times per week during the culturing. The THP-1 cells and EoL-1 cells were obtained from RIKEN BioResource Center, and the A3/KAW cells and KG-1 cells were obtained from Japan Health Sciences Foundation.
(§6) After adding 400 μL of the cell suspension and 100 μL of the ATX-S10•Na(II)-added solution to each well of a 48-well microplate and mixing, the mixtures were incubated with a CO2 incubator (37° C., 5% CO2) or allowed to stand in a refrigerating chamber (approximately 4° C.). The cells were separated immediately after addition (0 hours after addition) and 1 hour, 3 hours, 20 hours and 44 hours after addition, and ATX-S10•Na(II) uptake into the cells (including cell surface binding) was measured. The uptake with standing at 4° C. corresponds to cell surface binding, and the value of the uptake with incubation at 37° C. minus the uptake with standing at 4° C. is presumed to correspond to the substantial ATX-S 10 Na(II) uptake for each type of cell.
(§7) The cell separation and uptake measurement were performed in the following manner. Specifically, 1 mL of 1.5% BSA (bovine serum albumin)-containing PBS solution (ice-cold) was placed in a 1.5 mL tube. The suspension of cells to be separated was gently pipetted and mixed, and a 100 μL portion was taken and superposed onto the 1.5% BSA-containing PBS solution. For each well, the cell suspension (300 μL) was dispensed into three tubes (n=3). After centrifugation (3200 rpm, 10 minutes, 4° C.), the medium and 1.5% BSA-containing PBS solution were removed by suction, and then the precipitate was suspended in 100 μL of PBS(−), and 1 mL of PBS(−) was further added and mixed therewith. After additional centrifugation (3000 rpm, 10 minutes, 4° C.), the supernatant was removed by suction, and the bottom of the tube, where the precipitate is present, was cut out and transferred to a counting vial. Then 4.5 mL of liquid scintillator was added and mixed therewith, and the radioactivity was measured for 5 minutes using a liquid scintillation counter. The measured radioactivity was used to calculate the ATX-S10•Na(II) uptake (pmol/10^5 cells) into the cells.

[4] = system: neutrophils; assay: ATX-S10•Na(II) uptake into neutrophils; format: cell-based, human
Description: as §1, §2
The erythrocytes, neutrophils and lymphocytes were prepared from heparinized blood. The heparinized blood and 6% dextran-added saline were mixed in a proportion of 3:1 (v:v), and the mixture was allowed to stand at room temperature for 30 minutes. The upper layer leukocyte fraction was centrifuged with a centrifuge tube (900 rpm, 10 minutes, 4° C.), and the precipitate was suspended in saline, superposed onto Ficoll-Hypaque® solution and centrifuged (1600 rpm, 30 minutes, room temperature). The intermediate layer was used as the lymphocyte fraction (containing monocytes) and the precipitate was used as the neutrophil fraction. The neutrophil fraction was suspended in ice-cold 0.2% NaCl solution for hemolysis, and then an equivalent amount of ice-cold 1.6% NaCl solution was immediately added to restore isotonicity. The crude erythrocyte fraction was diluted with KRP (Krebs-Ringer phosphate buffer) and centrifuged (2000 rpm, 5 minutes, 4° C.), and the buffy coat (leukocyte layer) was removed. This procedure was further repeated 4 times to yield the erythrocyte fraction.
as §6, §7
Uptake into neutrophils was measured also with addition of N-formyl-L-methionyl-L-leucyl-L-phenylalanine (hereinafter referred to as “fMLP”) (final concentration: 1×10^−7 mol/L or 1×10^−6 mol/L) or phorbol 12-myristate 13-acetate (hereinafter referred to as “PMA”) (final concentration: 1×10^−7 mol/L) to the cell suspension together with ATX-S10•Na(II).

## C=Cc1c(C)c2cc3nc(cc4[nH]c(cc5nc(cc1[nH]2)C(C)=C5CCC(=O)NC(CC(=O)[O-])C(=O)[O-])c(CCC(=O)NC(CC(=O)[O-])C(=O)[O-])c4C)C(C)(O)/C3=C\C=NO.[Na+].[Na+].[Na+].[Na+] (stereo not drawn) [ATX-S10•Na(II)]
[1]; lymphocytes versus EoL-1, THP-1 and A3/KAW cells
  uptake compared between cell types: higher than EoL-1 cells, although not as high as THP-1 cells or A3/KAW cells
[1]; lymphocytes, course over incubation time
  substantial uptake of ATX-S10•Na(II) (uptake at 37° C. minus uptake at 4° C.): increased with incubation time
[2]
  ATX-S10•Na(II) uptake: Almost no ATX-S10•Na(II) was taken up
[3]; 0 hr, immediately after addition
  ATX-S10•Na(II) uptake: 0.40 pmol/10^5 cells
[3]; 1 hr, incubation at 37° C.
  ATX-S10•Na(II) uptake: 2.34 pmol/10^5 cells
[3]; 1 hr, standing at 4° C.
  ATX-S10•Na(II) uptake: 1.36 pmol/10^5 cells
[3]; 3 hr, incubation at 37° C.
  ATX-S10•Na(II) uptake: 2.59 pmol/10^5 cells
[3]; 3 hr, standing at 4° C.
  ATX-S10•Na(II) uptake: 1.50 pmol/10^5 cells
[3]; 20 hr, incubation at 37° C.
  ATX-S10•Na(II) uptake: 6.85 pmol/10^5 cells
[3]; 20 hr, standing at 4° C.
  ATX-S10•Na(II) uptake: 2.87 pmol/10^5 cells
[3]; 44 hr, incubation at 37° C.
  ATX-S10•Na(II) uptake: 10.97 pmol/10^5 cells
[3]; 44 hr, standing at 4° C.
  ATX-S10•Na(II) uptake: 0.96 pmol/10^5 cells
[3]; KG-1 cells, course over incubation time
  substantial uptake of ATX-S10•Na(II) (uptake at 37° C. minus uptake at 4° C.): increased with incubation time
[4]; Neutrophil (A), donor A, 0 hr, immediately after addition
  ATX-S10•Na(II) uptake: 0.21 pmol/10^5 cells
[4]; Neutrophil (A), 3 hr, incubation at 37° C.
  ATX-S10•Na(II) uptake: 0.38 pmol/10^5 cells
[4]; Neutrophil (A), 3 hr, standing at 4° C.
  ATX-S10•Na(II) uptake: 0.46 pmol/10^5 cells
[4]; Neutrophil (A), 20 hr, incubation at 37° C.
  ATX-S10•Na(II) uptake: 4.93 pmol/10^5 cells
[4]; Neutrophil (A), 20 hr, standing at 4° C.
  ATX-S10•Na(II) uptake: 0.57 pmol/10^5 cells
[4]; Neutrophil (B), 3 hr, incubation at 37° C.
  ATX-S10•Na(II) uptake: 0.40 pmol/10^5 cells
[4]; Neutrophil (B), 3 hr, standing at 4° C.
  ATX-S10•Na(II) uptake: 1.27 pmol/10^5 cells
[4]; Neutrophil (B), 20 hr, incubation at 37° C.
  ATX-S10•Na(II) uptake: 4.04 pmol/10^5 cells
[4]; Neutrophil (B), 20 hr, standing at 4° C.
  ATX-S10•Na(II) uptake: 0.47 pmol/10^5 cells
[4]; Neutrophil (B), 44 hr, incubation at 37° C.
  ATX-S10•Na(II) uptake: 16.32 pmol/10^5 cells
[4]; Neutrophil (B), 44 hr, standing at 4° C.
  ATX-S10•Na(II) uptake: 0.68 pmol/10^5 cells
[4]; Neutrophil (C), 3 hr, incubation at 37° C.
  ATX-S10•Na(II) uptake: 0.72 pmol/10^5 cells
[4]; Neutrophil (C), 3 hr, standing at 4° C.
  ATX-S10•Na(II) uptake: 0.36 pmol/10^5 cells
[4]; Neutrophil (C), 20 hr, incubation at 37° C.
  ATX-S10•Na(II) uptake: 10.13 pmol/10^5 cells
[4]; Neutrophil (C), 20 hr, standing at 4° C.
  ATX-S10•Na(II) uptake: 0.95 pmol/10^5 cells
[4]; Neutrophil stimulated with 1×10^−6 mol/L fMLP, 3 hr, incubation at 37° C.
  ATX-S10•Na(II) uptake: 0.75 pmol/10^5 cells
[4]; Neutrophil stimulated with 1×10^−6 mol/L fMLP, 3 hr, standing at 4° C.
  ATX-S10•Na(II) uptake: 2.02 pmol/10^5 cells
[4]; Neutrophil stimulated with 1×10^−6 mol/L fMLP, 20 hr, incubation at 37° C.
  ATX-S10•Na(II) uptake: 3.57 pmol/10^5 cells
[4]; Neutrophil stimulated with 1×10^−6 mol/L fMLP, 20 hr, standing at 4° C.
  ATX-S10•Na(II) uptake: 0.57 pmol/10^5 cells
[4]; Neutrophil stimulated with 1×10^−6 mol/L fMLP, 44 hr, incubation at 37° C.
  ATX-S10•Na(II) uptake: 14.14 pmol/10^5 cells
[4]; Neutrophil stimulated with 1×10^−6 mol/L fMLP, 44 hr, standing at 4° C.
  ATX-S10•Na(II) uptake: 3.28 pmol/10^5 cells
[4]; Neutrophil stimulated with 1×10^−7 mol/L PMA, 3 hr, incubation at 37° C.
  ATX-S10•Na(II) uptake: 4.45 pmol/10^5 cells
[4]; Neutrophil stimulated with 1×10^−7 mol/L PMA, 3 hr, standing at 4° C.
  ATX-S10•Na(II) uptake: 2.76 pmol/10^5 cells
[4]; Neutrophil stimulated with 1×10^−7 mol/L PMA, 20 hr, incubation at 37° C.
  ATX-S10•Na(II) uptake: 7.33 pmol/10^5 cells
[4]; Neutrophil stimulated with 1×10^−7 mol/L PMA, 20 hr, standing at 4° C.
  ATX-S10•Na(II) uptake: 1.09 pmol/10^5 cells
[4]; Neutrophil stimulated with 1×10^−7 mol/L fMLP, 3 hr, incubation at 37° C.
  ATX-S10•Na(II) uptake: 0.79 pmol/10^5 cells
[4]; Neutrophil stimulated with 1×10^−7 mol/L fMLP, 3 hr, standing at 4° C.
  ATX-S10•Na(II) uptake: 0.97 pmol/10^5 cells
[4]; Neutrophil stimulated with 1×10^−7 mol/L fMLP, 20 hr, incubation at 37° C.
  ATX-S10•Na(II) uptake: 2.67 pmol/10^5 cells
[4]; Neutrophil stimulated with 1×10^−7 mol/L fMLP, 20 hr, standing at 4° C.
  ATX-S10•Na(II) uptake: 0.50 pmol/10^5 cells
[4]; neutrophils after stimulation with WILP or PMA
  uptake after stimulation compared with unstimulated cells: no increase in uptake
[4]; neutrophils versus EoL-1, THP-1 and A3/KAW cells
  uptake compared between cell types: higher than EoL-1 cells, although not as high as THP-1 cells or A3/KAW cells
[4]; neutrophils, course over incubation time
  substantial uptake of ATX-S10•Na(II) (uptake at 37° C. minus uptake at 4° C.): increased with incubation time
